These molecules were tested on green foxtail (Se) (assay: Test Example 7: crop plant selectivity by upland field soil treatment (corn), herbicidal effects). Settings: dose 6.3 g ai/10a, 21st day after application.
Format: in vivo
Parameters: scale not given here
Procedure: (§1) (Test on Crop Plant Selectivity by Upland Field Soil Treatment)
(§2) In a plastic pot (surface area: 600 cm^2) filled with sand, corn (Ze), green foxtail (Se), pale smartweed (Po), slender amaranth (Am), common lambsquarters (Ch) and China jute (Ab) were sown and covered with soil. […] The plants were then cultured in a green house, and the evaluation of the herbicidal effects and phytotoxicity was conducted on the 21st day after the application in accordance with the standards as identified in Table 47.
`CC(C)ON=Cc1cc(-c2ccc(C(F)(F)F)n(C)c2=O)c(F)cc1Cl` [Compound 1-189] was tested, and the “Herbicidal effects Se” value was 5.

Each molecule was assayed on China jute (Ab) in the same assay as above. Settings: dose 6.3 g ai/10a, 21st day after application.
Format: in vivo
Parameters: scale not given here
Procedure: as §1, §2
For `CC(C)ON=Cc1cc(-c2ccc(C(F)(F)F)n(C)c2=O)c(F)cc1Cl` [Compound 1-189], the “Herbicidal effects Ab” value was 5.

These molecules were tested on pale smartweed (Po) in the same assay as above. Settings: dose 6.3 g ai/10a, 21st day after application.
Format: in vivo
Parameters: scale not given here
Procedure: as §1, §2
In the case of `CC(C)ON=Cc1cc(-c2ccc(C(F)(F)F)n(C)c2=O)c(F)cc1Cl` [Compound 1-189], the “Herbicidal effects Po” value is reported as 5.

These molecules were tested on slender amaranth (Am) (assay: Test Example 4: crop plant selectivity by upland field soil treatment (cotton), herbicidal effects). Settings: dose 6.3 g ai/10 a, evaluated 21st day after application.
Format: in vivo
Parameters: scale not given here
In short: (§3)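 Cotton and weeds (incl. China jute, pale smartweed, slender amaranth) sown in sand-filled pots and covered with soil, then soil-treated. Grown in greenhouse; herbicidal effect and cotton phytotoxicity scored on day 21 after application against a rating standard.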
With `CC(C)ON=Cc1cc(-c2ccc(C(F)(F)F)n(C)c2=O)c(F)cc1Cl` [Compound 1-189] the “Herbicidal effects Am” value was 5.

Each molecule was assayed on common lambsquarters (Ch) in the same assay as above. Settings: dose 6.3 g ai/10 a, evaluated 21st day after application.
Format: in vivo
Parameters: scale not given here
In short: as §3
With `CC(C)ON=Cc1cc(-c2ccc(C(F)(F)F)n(C)c2=O)c(F)cc1Cl` [Compound 1-189] the “Herbicidal effects Ch” value was 5.

These molecules were tested on green foxtail (Se) in the same assay as above. Settings: dose 6.3 g ai/10 a, evaluated 21st day after application.
Format: in vivo
Parameters: scale not given here
In short: as §3
In the case of `CC(C)ON=Cc1cc(-c2ccc(C(F)(F)F)n(C)c2=O)c(F)cc1Cl` [Compound 1-189], the “Herbicidal effects Se” value is reported as 5.

These molecules were tested on China jute (Ab) in the same assay as above. Settings: dose 6.3 g ai/10 a, evaluated 21st day after application.
Format: in vivo
Parameters: scale not given here
In short: as §3
For `CC(C)ON=Cc1cc(-c2ccc(C(F)(F)F)n(C)c2=O)c(F)cc1Cl` [Compound 1-189], the “Herbicidal effects Ab” value was 5.

These molecules were tested on pale smartweed (Po) in the same assay as above. Settings: dose 6.3 g ai/10 a, evaluated 21st day after application.
Format: in vivo
Parameters: scale not given here
In short: as §3
With `CC(C)ON=Cc1cc(-c2ccc(C(F)(F)F)n(C)c2=O)c(F)cc1Cl` [Compound 1-189] the “Herbicidal effects Po” value was 5.

These molecules were tested on barnyardgrass (Ec) (assay: Test Example 1: herbicidal effects by paddy field soil treatment). Settings: 100 g of the active ingredient per 10 ares, 21st day after the application, index 0-5 of Table 47.
Format: in vivo
In short: (§4)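 Flooded paddy-soil pots (3 cm water) sown after puddling/leveling; treatment 100 g a.i./10 ares; greenhouse culture; herbicidal effect rated visually on a scoring scale at 21 d post-application.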
For `CC(C)ON=Cc1cc(-c2ccc(C(F)(F)F)n(C)c2=O)c(F)cc1Cl` [Compound 1-189], the “Herbicidal effects Ec” value was 5.

The molecules below were run on bulrush (Sc) in the same assay as above. Settings: 100 g of the active ingredient per 10 ares, 21st day after the application, index 0-5 of Table 47.
Format: in vivo
In short: as §4
`CC(C)ON=Cc1cc(-c2ccc(C(F)(F)F)n(C)c2=O)c(F)cc1Cl` [Compound 1-189] was tested, and the “Herbicidal effects Sc” value was 5.

Each molecule was assayed on monochoria (Mo) in the same assay as above. Settings: 100 g of the active ingredient per 10 ares, 21st day after the application, index 0-5 of Table 47.
Format: in vivo
In short: as §4
With `CC(C)ON=Cc1cc(-c2ccc(C(F)(F)F)n(C)c2=O)c(F)cc1Cl` [Compound 1-189] the “Herbicidal effects Mo” value was 5.

What follows are molecules tested on cotton (Go) (assay: Test Example 4: crop plant selectivity by upland field soil treatment (cotton), phytotoxicity). Settings: dose 6.3 g ai/10 a, evaluated 21st day after application.
Format: in vivo
Parameters: scale not given here
In short: as §3
For `CC(C)ON=Cc1cc(-c2ccc(C(F)(F)F)n(C)c2=O)c(F)cc1Cl` [Compound 1-189], the “Phytotoxicity Go” value was 0.

The molecules below were run on barnyardgrass (Ec) (assay: Test Example 2: herbicidal effects by upland field soil treatment). Settings: 100 g of the active ingredient per 10 ares, evaluated on the 21st day after application.
Format: in vivo
Source text: (§5) (Test on Herbicidal Effects by Upland Field Soil Treatment)
With `CC(C)ON=Cc1cc(-c2ccc(C(F)(F)F)n(C)c2=O)c(F)cc1Cl` [Compound 1-189] the “Herbicidal effects Ec” value was 5.

Each molecule was assayed on Digitaria ciliaris (Di) in the same assay as above. Settings: 100 g of the active ingredient per 10 ares, evaluated on the 21st day after application.
Format: in vivo
Source text: as §5
For `CC(C)ON=Cc1cc(-c2ccc(C(F)(F)F)n(C)c2=O)c(F)cc1Cl` [Compound 1-189], the “Herbicidal effects Di” value was 5.

Each molecule was assayed on slender amaranth (Am) in the same assay as above. Settings: 100 g of the active ingredient per 10 ares, evaluated on the 21st day after application.
Format: in vivo
Source text: as §5
For `CC(C)ON=Cc1cc(-c2ccc(C(F)(F)F)n(C)c2=O)c(F)cc1Cl` [Compound 1-189], the “Herbicidal effects Am” value was 5.

What follows are molecules tested on common lambsquarters (Ch) in the same assay as above. Settings: 100 g of the active ingredient per 10 ares, evaluated on the 21st day after application.
Format: in vivo
Source text: as §5
`CC(C)ON=Cc1cc(-c2ccc(C(F)(F)F)n(C)c2=O)c(F)cc1Cl` [Compound 1-189] was tested, and the “Herbicidal effects Ch” value was 5.

What follows are molecules tested on rice flatsedge (Ci) in the same assay as above. Settings: 100 g of the active ingredient per 10 ares, evaluated on the 21st day after application.
Format: in vivo
Source text: as §5
`CC(C)ON=Cc1cc(-c2ccc(C(F)(F)F)n(C)c2=O)c(F)cc1Cl` [Compound 1-189] was tested, and the “Herbicidal effects Ci” value was 5.

Each molecule was assayed on pale smartweed (Po) in the same assay as above. Settings: 100 g of the active ingredient per 10 ares, evaluated on the 21st day after application.
Format: in vivo
Source text: as §5
`CC(C)ON=Cc1cc(-c2ccc(C(F)(F)F)n(C)c2=O)c(F)cc1Cl` [Compound 1-189] was tested, and the “Herbicidal effects Po” value was 5.

The molecules below were run on corn (Ze) (assay: Test Example 7: crop plant selectivity by upland field soil treatment (corn), phytotoxicity). Settings: dose 6.3 g ai/10a, 21st day after application.
Format: in vivo
Parameters: scale not given here
Procedure: as §1, §2
For `CC(C)ON=Cc1cc(-c2ccc(C(F)(F)F)n(C)c2=O)c(F)cc1Cl` [Compound 1-189], the “Phytotoxicity Ze” value was 1.

What follows are molecules tested on wheat (Tr) (assay: Test Example 5: crop plant selectivity by upland field soil treatment (wheat), phytotoxicity). Settings: dose 6.3 g ai/10a, 21st day after application.
Format: in vivo
Parameters: scale not given here
Procedure: as §1
In a plastic pot (surface area: 600 cm^2) filled with sand, wheat (Tr), Diaitaria ciliaris (Di), green foxtail (Se), pale smartweed (Po), slender amaranth (Am), common lambsquarters (Ch) and China jute (Ab) were sown and covered with soil. […] The plants were then cultured in a green house, and the evaluation of the herbicidal effects and phytotoxicity was conducted on the 21st day after the application in accordance with the standards as identified in Table 47. Symbol—represents “not tested”.
With `CC(C)ON=Cc1cc(-c2ccc(C(F)(F)F)n(C)c2=O)c(F)cc1Cl` [Compound 1-189] the “Phytotoxicity Tr” value was 1.

From patent US6472348B1, “Pyridone derivatives and herbicides” (Kumiai Chemical Industry Co., Ltd., priority 1996, dated 2002)
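Throughout, for Herbicidal effects Di: grade of growth control; 5 = at least 90%; 4 = 70 to 90%; 3 = 50 to 70%; 2 = 30 to 50%; 1 = 10 to 30%; 0 = under 10%.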
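Throughout, for Herbicidal effects Ec: grade of growth control; 5 = at least 90%; 4 = 70 to 90%; 3 = 50 to 70%; 2 = 30 to 50%; 1 = 10 to 30%; 0 = under 10%.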
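Throughout, for Herbicidal effects Mo: grade of growth control; 5 = at least 90%; 4 = 70 to 90%; 3 = 50 to 70%; 2 = 30 to 50%; 1 = 10 to 30%; 0 = under 10%.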
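Throughout, for Herbicidal effects Sc: grade of growth control; 5 = at least 90%; 4 = 70 to 90%; 3 = 50 to 70%; 2 = 30 to 50%; 1 = 10 to 30%; 0 = under 10%.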
